This passage reports IC50 and melting point results from patent US8273761B2, “Tricyclic compound and medical use thereof” (Takeda Pharmaceutical Company Limited, priority 2006, dated 2012).

Data set [1] deals with T1, human melatonin 1 receptors (human MT1 receptors) (Homo sapiens, UniProt P48039).
T1 construct: expressed in transfected cells
Put plainly: Melatonin receptor binding inhibitory test (MT1). Conditions: 2-[125I] Iodomelatonin 400 pM solution, membrane fraction of CHO-hMelR7 cells, 25° C. for 2.5 hr. As for the experimental part:
Biochim Biophys Acta. Vol. 1219(2), pp. 251-259, 1994) to give plasmid pAKKO-hMelR7 for animal cell expression. CHO/dhfr-cells (ATCC, #CRL-9096) were plated at a concentration of 0.3×10^6 cells/dish in a 6 cm culture dish (Becton Dickinson), and cultured under the conditions of 37° C., 5% CO2 for 48 hr. The cells were transfected with pAKKO-hMelR7 plasmid DNA (5 μg) using […] Transfection Kit (Amersham, #27-9268-01). The transfected cells were cultured in Dulbecco's modified Eagle medium (DMEM) (Sigma, #D6046) containing 10% dialyzed FBS ([…]), 1× Non-Essential Amino Acid (Invitrogen, #11140-050) and 50 μg/mL Gentamycin (Invitrogen, #15750-060), and the cell line that stably expressed the plasmid gene was selected. By a receptor binding assay using 2-[^125I] […] (3) Preparation of Cellular Membrane Fraction of CHO Cell (CHO-hMelR7 and CHO-hMT2) Stably Expressing Human MT1 and MT2 Receptors CHO-hMelR7 and CHO-hMT2 cells were plated using Cellfactory (Nunc, #170009) under the conditions of 1×10^8 cells/2000 mL/flask. The cells were grown to confluent, and recovered by the following method. As the medium for CHO-hMelR7 and CHO-hMT2, MEM α containing 10% FBS and penicillin/streptomycin was used. 300 ng/mL of geneticin was added to the medium for CHO-hMT2. The medium was discarded, cells were washed twice with 200 mL of EDTA/PBS(-), 200 mL of EDTA/PBS(-) was further added, and the cells were stood still at room temperature for 20 min until they were released. The cells were recovered in four 50 mL tubes (Becton Dickinson, #352070), and centrifuged at 1,500 rpm for 10 min at 4° C. using a low speed cooling centrifuge (Hitachi, CF7D2). The supernatant was discarded, the pellets in the four tubes were suspended in 10 mL of PBS(-), and combined in one tube (Becton Dickinson, #352070). The mixture was further centrifuged at 1,500 rpm for 10 min at 4° C., and the obtained pellets were suspended in 20 mL of ice-cooled homogenizing buffer [10 mM NaHCO3, 5 mM EDTA, Protease inhibitor Complete (Roche), pH 7.4]. The cell suspension was homogenized 3 times using a polytron homogenizer at 20,000 rpm for 30 sec. The obtained homogenate was centrifuged (2,000 rpm, 10 min, 4° C.) using a low speed cooling centrifuge. The supernatant was recovered in an ultracentrifugation tube and ultracentrifuged (40,000 rpm, 60 min, 4° C.) using an ultracentrifuge (Beckman, […]). To the obtained pellets was added a suspending buffer [50 mM Tris-HCl, 1 mM EDTA, Protease inhibitor Complete (Roche), pH 7.4], and the pellets were suspended by pipetting. The protein concentration of this suspension was measured, diluted to 2 mg/mL to give cellular membrane fractions of CHO-hMelR7 and CHO-hMT2 cells. […] Protein was quantified using BCA protein assay kit (Pierce) with BSA as the standard. (4) Preparation of Membrane Fraction Suspension Immediately before use, the membrane fractions of CHO-hMelR7 and CHO-hMT2 cells of the above-mentioned (3) were diluted 20-fold with assay buffer (50 mM Tris-HCl, pH 7.7). (5) Preparation of 2-[^125I] […] (6) Binding Reaction The assay buffer (80 μL) of the above-mentioned (4) was added to each well of a 96-well plate (type 3363, Corning). […] (7) Measurement Using a cell harvester (PerkinElmer), the binding reaction mixture in each well of the 96-well plate was transferred to a treated (immersed in 50 mM Tris, pH 7.7 in advance) filter plate (UniFilter GF/C, PerkinElmer) and filtered. After filtration, the plate was washed 4 times with the assay buffer, and dried in a dryer (42° C.) for 2 hr or more. 25 μL of a liquid scintillator (MicroScint O, PerkinElmer) was added to each well of the filter plate after drying, and the luminescence of scintillator was measured by TopCount (PerkinElmer) for 1 min. Specific binding is a value obtained by subtracting nonspecific binding from the total binding.

SMILES strings stand for the structures.

T1 sequence (P48039 whole entry): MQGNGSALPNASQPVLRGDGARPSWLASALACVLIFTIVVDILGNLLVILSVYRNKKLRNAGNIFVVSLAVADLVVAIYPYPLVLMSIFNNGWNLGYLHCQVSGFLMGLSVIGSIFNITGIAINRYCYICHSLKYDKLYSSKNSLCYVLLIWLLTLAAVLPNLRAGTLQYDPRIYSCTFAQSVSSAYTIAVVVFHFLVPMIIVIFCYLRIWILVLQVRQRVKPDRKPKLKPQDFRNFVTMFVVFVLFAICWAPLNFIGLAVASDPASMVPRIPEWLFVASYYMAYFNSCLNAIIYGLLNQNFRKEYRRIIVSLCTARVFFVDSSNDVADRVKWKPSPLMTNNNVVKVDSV

`CC(=O)NCCc1c(-c2ccccc2)cn2ccc3c(c12)CCO3` [Example 17, N-[2-(8-phenyl-1,2-dihydrofuro[2,3-g]indolizin-9-yl)ethyl]acetamide] yielded an IC50 in data set [1] of no more than 100 nM.
Regarding `CCC(=O)NCCc1c(-c2ccccc2)nn2ccc3c(c12)CCO3` [Example 8, N-[2-(2-phenyl-8,9-dihydrofuro[3,2-c]pyrazolo[1,5-a]pyridin-1-yl)ethyl]propanamide], the melting point is 169 to 170 °C. This compound returned an IC50 in data set [1] of no more than 100 nM.
For `CC(=O)NCCC1=C(C(C)C)Cc2cnc3c(c21)CCO3` [Example 30, N-[2-(7-isopropyl-1,6-dihydro-2H-cyclopenta[d]furo[2,3-b]pyridin-8-yl)ethyl]acetamide], in that order: 164 to 166 °C and no more than 100 nM.
In the same order, the values of `CCc1nn2ccc3oc(C)cc3c2c1CCNC(C)=O` [Example 39, N-[2-(2-ethyl-8-methylfuro[3,2-c]pyrazolo[1,5-a]pyridin-1-yl)ethyl]acetamide] are 128 to 129 °C and no more than 100 nM.
For `CCCC(=O)NCCC1CCc2cnc3c(c21)CCO3` (stereo not shown) [Example 25, N-[2-(1,6,7,8-tetrahydro-2H-cyclopenta[d]furo[2,3-b]pyridin-8-yl)ethyl]butanamide], in data set [1], the IC50 was no more than 100 nM.
The compound `CCC(=O)NCCC1=CCc2cnc3c(c21)CCO3` [Example 29, N-[2-(1,6-dihydro-2H-cyclopenta[d]furo[2,3-b]pyridin-8-yl)ethyl]propanamide] showed a melting point of 111 to 112 °C. Moreover, the IC50 in data set [1] was no more than 100 nM.
For `CCC(=O)NCCc1cnn2ccc3c(c12)CCO3` [Example 4, N-[2-(8,9-dihydrofuro[3,2-c]pyrazolo[1,5-a]pyridin-1-yl)ethyl]propanamide], in that order: 96 to 97 °C and no more than 100 nM.
For `CCC(=O)NCCc1c(-c2ccccc2)nn2ccc3occc3c12` [Example 2, N-[2-(2-phenylfuro[3,2-c]pyrazolo[1,5-a]pyridin-1-yl)ethyl]propanamide], in that order: 161 to 163 °C and no more than 100 nM.
Turning to `CCC(=O)NCCC1CCc2cnc3c(c21)CCO3` (single isomer, unassigned) [Example 23, optically active N-[2-(1,6,7,8-tetrahydro-2H-cyclopenta[d]furo[2,3-b]pyridin-8-yl)ethyl]propanamide], in data set [1], the IC50 is no more than 100 nM.
In turn, `CCC(=O)NCCc1c(-c2ccc(F)cc2)nn2ccc3c(c12)CCO3` [Example 16, N-{2-[2-(4-fluorophenyl)-8,9-dihydrofuro[3,2-c]pyrazolo[1,5-a]pyridin-1-yl]ethyl}propanamide] showed a melting point of 170 to 171 °C. The compound further yielded an IC50 in data set [1] of no more than 100 nM.
In the same order, the values of `CC(=O)NCCc1cnn2ccc3c(c12)CCO3` [Example 3, N-[2-(8,9-dihydrofuro[3,2-c]pyrazolo[1,5-a]pyridin-1-yl)ethyl]acetamide] are 174 to 175 °C and no more than 100 nM.
Consider `CCC(=O)NCCC1=C(C(C)C)Cc2cnc3c(c21)CCO3` [Example 31, N-[2-(7-isopropyl-1,6-dihydro-2H-cyclopenta[d]furo[2,3-b]pyridin-8-yl)ethyl]propanamide], for which the melting point is 168 to 170 °C. For the same compound, in data set [1], the IC50 is no more than 100 nM.
For `CC(=O)NCCc1c(-c2ccc(F)cc2)nn2ccc3c(c12)CCO3` [Example 15, N-{2-[2-(4-fluorophenyl)-8,9-dihydrofuro[3,2-c]pyrazolo[1,5-a]pyridin-1-yl]ethyl}acetamide], in that order: 160 to 162 °C and no more than 100 nM.
For `CCCC(=O)NCCc1cnn2ccc3c(c12)CCO3` [Example 5, N-[2-(8,9-dihydrofuro[3,2-c]pyrazolo[1,5-a]pyridin-1-yl)ethyl]butanamide], in that order: 58 to 59 °C and no more than 100 nM.
As to `CC(=O)NCCC1CCc2cnc3c(c21)CCO3` (single isomer, unassigned) [Example 20, optically active N-[2-(1,6,7,8-tetrahydro-2H-cyclopenta[d]furo[2,3-b]pyridin-8-yl)ethyl]acetamide], the IC50 in data set [1] is no more than 100 nM.
`CCC(=O)NCC(C)c1c(CC)nn2ccc3c(c12)CCO3` (stereo not shown) [Example 38, N-[2-(2-ethyl-8,9-dihydrofuro[3,2-c]pyrazolo[1,5-a]pyridin-1-yl)propyl]propanamide] displayed a melting point of 173 to 175 °C. Moreover, in data set [1], the IC50 was no more than 100 nM.
In the same order, the values of `CCc1nn2ccc3c(c2c1C(C)CNC(C)=O)CCO3` (stereo not shown) [Example 37, N-[2-(2-ethyl-8,9-dihydrofuro[3,2-c]pyrazolo[1,5-a]pyridin-1-yl)propyl]acetamide] are 151 to 153 °C and no more than 100 nM.
As for `CCC(=O)NCCC1CCc2cnc3c(c21)CCO3` (stereo not shown) [Example 22, N-[2-(1,6,7,8-tetrahydro-2H-cyclopenta[d]furo[2,3-b]pyridin-8-yl)ethyl]propanamide], the IC50 in data set [1] is no more than 100 nM.

As a reminder, the IC50 is the point on the concentration scale where inhibition reaches its midpoint. Read a low IC50 as higher potency. A word on the melting point: it is the temperature of the solid-liquid transition.
